Results on 25 compounds are retold here after ChEMBL document CHEMBL1138898 (Bioorg Med Chem Lett, 2006).

Assay [1] is described as follows: Binding affinity to alpha-2delta calcium channel.
Assay [2] has as its system Mus musculus. As to the kind of experiment: Protection of DBA/2 mouse against audiogenic-induced tonic seizure at 30 mg/kg, po after 2 hrs. The assay is classed as functional.
The subject of assay [3] is Mus musculus. The experiment in a line: Protection of DBA/2 mouse against audiogenic-induced tonic seizure at 30 mg/kg, po after 1 hr. In kind it is functional.

Structures are written as SMILES.

By Ki is commonly meant a dissociation constant, usually derived from enzyme kinetics or from competition with a known ligand. Consider `CCCC(CCC)CC(CN)c1nnn[nH]1` (stereo not given), for which the Ki in assay [1] came to 280 nM.
The same measure, in the same setting: for `NCCc1nnn[nH]1` the value was > 10000 nM.
The same measure, in the same setting: for `NCC(c1ccccc1)c1nnn[nH]1` (stereo not given) the value was > 10000 nM.
Same read-out and setting: for `CC(C)C(CN)c1nnn[nH]1` (stereo not given) the value was 130 nM; for `CC(C)CCC(CN)c1nnn[nH]1` (stereo not given), 210 nM.
`NCC(CCCCc1ccccc1)c1nnn[nH]1` (stereo not given): the Ki in assay [1] amounted to 130 nM.
Regarding `CC(C)(CN)c1nnn[nH]1`, the Ki in assay [1] is > 10000 nM.
Regarding `NCC(Cc1ccccc1)(Cc1ccccc1)c1nnn[nH]1`, the Ki in assay [1] was > 10000 nM.
On the same count and under the same terms, in the case of `CC(CN)(Cc1ccccc1)c1nnn[nH]1` (stereo not given) it was 900 nM; in that of `NCC(CCCCCc1ccccc1)c1nnn[nH]1` (stereo not given), 500 nM.
As to `CC(CN)(Cc1cccc(C(F)(F)F)c1)c1nnn[nH]1` (stereo not given), in assay [1], the Ki stood at 160 nM.
Still for that read-out and setting: in the case of `NCC(CCc1ccccc1)c1nnn[nH]1` (stereo not given) it was 3100 nM; in that of `NCC(CC1CCCCC1)c1nnn[nH]1` (stereo not given), 570 nM; in that of `CC(C)C1CC1(CN)c1nnn[nH]1` (stereo not given), 190 nM.
The same measure, in the same setting: in the case of `CCCCCCC(CN)c1nnn[nH]1` (stereo not given) it was 330 nM; in that of `CCC(CC)C1CC1(CN)c1nnn[nH]1` (stereo not given), 4000 nM.
As to `NCC1(c2nnn[nH]2)CC12CCCCC2` (stereo not given), the Ki in assay [1] was found to be 33 nM.
Same read-out and setting: for `NCC(c1nnn[nH]1)C1CCCCC1` (stereo not given) the value was 150 nM.
Still for that read-out and setting: in the case of `NCC(Cc1ccccc1)c1nnn[nH]1` (stereo not given) it was 7600 nM.
Regarding `NCC(CCCc1ccccc1)c1nnn[nH]1` (stereo not given), in assay [1], the Ki was found to be 2100 nM.
The same measure, in the same setting: in the case of `CC(CN)(Cc1ccc(F)c(F)c1)c1nnn[nH]1` (stereo not given) it was 520 nM.
With `CCC(CC)CC(CN)c1nnn[nH]1` (stereo not given), the Ki in assay [1] came out at 11 nM. Also, the Activity was 100% in the assay on Mus musculus [2] and 60% with Mus musculus [3].
Take `NCC(c1nnn[nH]1)C1CCCC1` (stereo not given): the Ki in assay [1] is 18 nM.
Take `CC(C)CC(CN)c1nnn[nH]1` (stereo not given): the Ki in assay [1] is 17 nM. The Activity in the assay with Mus musculus [2] was found to be 80%; with Mus musculus [3] it was 40%.
As to `CC(C)C[C@H](CN)CC(=O)O` [PREGABALIN], the Activity with Mus musculus [2] and in the assay on Mus musculus [3] was 100% each time.
